According to US8658638B2, “Mineralocorticoid receptor antagonist and methods of use” (priority 2009, dated 2014):
pEC50, pIC50: −log10 of the molar value.

Target: T1, human glucocorticoid receptor (GR) (Homo sapiens, UniProt P04150)
T1 construct: expressed in transfected cells; host or cells: HEK293
T1 sequence (P04150 1-777): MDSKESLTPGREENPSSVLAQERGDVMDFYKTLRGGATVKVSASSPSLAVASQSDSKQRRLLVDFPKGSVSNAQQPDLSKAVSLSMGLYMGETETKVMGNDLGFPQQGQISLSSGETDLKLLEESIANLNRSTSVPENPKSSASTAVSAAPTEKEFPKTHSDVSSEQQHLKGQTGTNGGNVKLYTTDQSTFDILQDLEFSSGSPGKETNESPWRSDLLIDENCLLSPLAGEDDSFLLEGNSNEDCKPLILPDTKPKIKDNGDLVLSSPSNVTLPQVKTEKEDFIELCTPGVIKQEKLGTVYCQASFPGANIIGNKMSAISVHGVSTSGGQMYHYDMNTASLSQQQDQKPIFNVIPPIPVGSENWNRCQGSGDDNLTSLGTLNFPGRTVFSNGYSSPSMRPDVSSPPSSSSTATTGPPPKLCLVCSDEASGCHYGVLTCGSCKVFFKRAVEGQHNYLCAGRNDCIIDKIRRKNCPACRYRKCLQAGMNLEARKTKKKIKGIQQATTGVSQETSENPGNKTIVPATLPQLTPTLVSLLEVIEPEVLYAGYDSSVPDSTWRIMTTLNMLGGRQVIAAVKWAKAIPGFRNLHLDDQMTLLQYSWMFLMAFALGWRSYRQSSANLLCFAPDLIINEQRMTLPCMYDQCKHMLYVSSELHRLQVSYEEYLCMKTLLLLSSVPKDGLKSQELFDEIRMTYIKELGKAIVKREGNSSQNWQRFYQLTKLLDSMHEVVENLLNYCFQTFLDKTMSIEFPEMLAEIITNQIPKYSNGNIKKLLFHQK
Experiment: Nuclear hormone receptor panel screen (luciferase reporter, HEK293), GR
Assay type: cell-based
Excerpt: Aldosterone exerts it physiological effects through interaction with the mineralocorticoid receptor. Following cytoplasmic binding of aldosterone to MR, the ligand receptor complex translocates to the cell nucleus where it binds to hormone response elements on DNA to initiate expression of target genes. […] The solvents, reagents, and ligands employed in the functional assay are readily available from commercial sources, or can be prepared by one of ordinary skill in the art.
Human embryonic kidney HEK293 cells are transfected with steroid hormone receptor and reporter gene plasmids using a suitable transfection reagent such as Fugene™. […] After 24 hours incubation with test compounds, cells are lysed and luciferase activity is determined using standard techniques.
Data are fitted to a four parameter-fit logistic curve to determine EC50 values. […] IC50 values are determined similarly using antagonist mode assay data. In the antagonist mode, percent inhibitions are determined by comparing test compound activity in the presence of low concentration of agonist (0.08 nM aldosterone for MR, 0.25 nM dexamethasone for GR, 0.66 nM of methyltrienolone for AR, and 0.08 nM of promegestone for PR) to the response produced by the same low concentration of agonist in the absence of test compound.

pEC50 (agonist mode): < 5.00
pIC50 (antagonist mode, 0.25 nM dexamethasone): < 5.00
Structure (SMILES): O=c1[nH]c2cc(/C=C3\c4ccccc4COc4cc(F)ccc43)ccc2n1[C@@H]1C[C@@H]2COCCN2C1 [Compound (I), 5-((E)-(3-fluorodibenzo[b,e]oxepin-11(6H)-ylidene)methyl)-1-((7R,8aR)-hexahydro-1H-pyrrolo[2,1-c][1,4]oxazin-7-yl)-1H-benzo[d]imidazol-2(3H)-one]
